# Assay results published in patent publication US20260365692A1, “COMPOSITIONS COMPRISING PROTEINS DISSOLVED IN FLUORINATED SOLVENTS, AND METHODS OF MAKING AND USING THE SAME” (priority 2022, published 2026).
# Experiments:
# [1] = test system: bovine serum albumin (BSA), β-Galactosidase (β-Gal), rabbit serum immunoglobulin (IgG), and bovine trypsin; assay: Dispersion efficiency of four model proteins in PFOc (Example 4); format: physicochemical; conditions: PD:protein molar ratio 1000:1
# Method: These compounds were screened to evaluate their ability to disperse four model proteins, bovine serum albumin (BSA), β-Galactosidase (β-Gal), rabbit serum immunoglobulin (IgG), and bovine trypsin into the PFOc solvent. […] […] The samples were then briefly vortexed/sonicated then constantly mixed overnight to ensure proper fluorine dispersion. After that, samples were centrifuged at 1950 g for 5 minutes to remove non-dispersed portion, and 100 μL supernatant of dispersed protein sample was transferred into each well of 96-well plate. PFHx solvent was let evaporate at 37 °C for two hours. The remaining protein residue was redissolved in […] PBS, and an equal volume of Coomassie solution was added to the sample. In addition, protein prepared in PBS and PFHx (without PFNA) were also identically processed and included as positive and negative control. Lastly, the amount of protein was quantified by taking absorbance of converted Coomassie solution at 595 nm. Dispersion efficiency was calculated as follows:
# [2] = target: bovine serum albumin (BSA) (Bos taurus, UniProt P02769); assay: Circular dichroism with PFNA, BSA
# Text: (§1) FIGS. 14A-14L depict circular dichroism spectra of Hb (FIG. 14A), GFP (FIG. 14B), BSA (FIG. 14C), β-Gal (FIG. 14D), rabbit serum IgG (FIG. 14E), transferrin (FIG. 14F), and urease (FIG. 14G) in the absence (black line) or presence (dashed lines) of PFNA. Increasing dash sequence indicated higher concentration of PFNA. FIG. 14H: Change in molar ellipticity at 216 nm (Δθ216) of PFNA-treated proteins, relative to native controls, as a function of increasing ligand concentration. FIG. 14I: Percentage change in secondary structural motifs of Hb, β-Gal and IgG between the native protein and 1 mM PFNA treated samples. β-sheet structures were further differentiated into parallel and antiparallel conformations. Hb, β-Gal and IgG were prioritized for analysis based on their significant spectral shift in the presence of 1 mM PFNA. FIGS. 14J-14L: Sensograms for BSA (FIG. 14J), β-gal (FIG. 14K), and IgG (FIG. 14L) showing relative response (R.U.) at 10, 25, 50, 75, and 100 μM.
# (§2) To explore PFNA-mediated changes in protein structure, dose-response circular dichroism (CD) studies were performed (FIG. 14A-14G). […] Remarkably, these structural changes endured even at sub-stoichiometric PFNA:protein ratios (see 0.001 mM PFNA in […]; protein concentration was constant at 0.01 mM).
# [3] = test system: urease; assay: Circular dichroism with PFNA, urease
# Text: as §1, §2
# [4] = test system: β-gal; assay: Circular dichroism with PFNA, β-gal; conditions: 0.001-1 mM PFNA
# Text: as §1, §2
# [5] = test system: IgG; assay: Surface plasmon resonance, IgG; format: binding, rabbit; conditions: after reference correction
# Text: as §1
# To test this assertion, PFNA binding to three exemplary proteins, BSA, β-Gal and IgG, was studied via isothermal titration calorimetry (ITC) and surface plasmon resonance (SPR) techniques. […] SPR analysis yielded similar results, with sensorgrams (FIGS. 14J-14L) that diverged from a simple 1:1 ligand-protein model. […]
# [6] = test system: A549 cells; assay: Annexin V/propidium iodide co-staining of A549 cells; format: cell-based, human; conditions: PFNA
# Method: FIGS. 20A-20D depicts annexin-V/PI co-staining of A549 cells treated without or with PFNA at 2 and 24 hours. FIGS. 20A-20C: Flow cytometry scatter plots. FIG. 20D: quadrant data comparing the population of unaffected cells (native), to cells displaying lipid translocation (Lip. Tran.) membrane permeabilization (Mem. Perm.), or both.
# The ability of PFNA to modulate protein uptake may be explained by the reported anchorage of fluorinated amphiphiles within cell membranes to alter lipid bilayer fluidity and liquid-crystalline phase transitions. To test this assertion, and inform the interpretation of the protein uptake results, the annexin V (AV)/propidium iodide (PI) assay, commonly used to study apoptosis, was repurposed to explore membrane dynamics following PFNA exposure (FIGS. 20A-20D). Here, AV bound phosphatidylserine lipids exposed via inner-to-outer leaflet translocation, while PI positively labeled cells with permeabilized membranes. Comparing dye uptake at early (2 hour) and late (24 hour) PFNA exposure times allowed interpretation of lipid translocation (AV^+, PI^−), membrane permeabilization (AV^−, PI^+), both (AV^+, PI^+), or neither (AV^−, PI^−). […]
# [7] = test system: HepG2 cells; assay: HepG2 MTT viability assay (Example 2); format: cell-based, human; conditions: Homo sapiens, HepG2, 37 °C overnight
# Method: FIG. 28 depicts a viability assay for HepG2 cells treated with two first generation compounds and two second generation compounds.
# Next, viability assays were performed by seeding HepG2 (liver cancer cell line) onto 96 well plates and allowing the cells to adhere overnight. DMEM cell culture media containing various concentrations of each FTag compound were then added, and the plates were incubated at 37 °C overnight. The supernatant was then removed and MTT viability dyes were added to each well and allowed to convert for 2 hours. Dye absorbance for each condition was then compared to positive (20% DMSO) and negative (blank media) controls to calculate % viability (FIG. 28).
# [8] = test system: proteinase K; assay: β-Gal activity after proteinase K exposure; format: physicochemical; conditions: 24 hours
# Text: FIGS. 54A-54C depict the relative activity of the β-Gal protein dispersed in PBS or PFOc solvents without and with contamination by (FIG. 54A) proteinase K, (FIG. 54B) bleach or (FIG. 54C) hydrochloric acid. Data shown as average±s.d. of n=3 technical replicates. Statistical significance between conditions is indicated by a line using unpaired Student's t-test with n.s.=not significant, * p<0.05, ** p<0.01, and *** p<0.001.
# An equal volumetric amount of β-Gal and proteinase K stocks were mixed and incubated together for 24 hours. The remaining active β-Gal was evaluated by adding ONPG substrate diluted in PBS at 4 mg/mL directly to the samples. This action eluted β-Gal from PFOc solvent and immediately starting ONPG conversion without further β-Gal disruption from residue proteinase K that was also eluted into aqueous buffer. The enzymatic activity was calculated from measuring absorbance (420 nm) after 15-minute conversion. […] A likely explanation for this is that the proteinase K protein is also coated by the PD-7 additive after addition to the PFOc solvent, leading to its segregation from the co-dispersed β-Gal protein.
# Chain of bovine serum albumin (BSA) (P02769 25-607): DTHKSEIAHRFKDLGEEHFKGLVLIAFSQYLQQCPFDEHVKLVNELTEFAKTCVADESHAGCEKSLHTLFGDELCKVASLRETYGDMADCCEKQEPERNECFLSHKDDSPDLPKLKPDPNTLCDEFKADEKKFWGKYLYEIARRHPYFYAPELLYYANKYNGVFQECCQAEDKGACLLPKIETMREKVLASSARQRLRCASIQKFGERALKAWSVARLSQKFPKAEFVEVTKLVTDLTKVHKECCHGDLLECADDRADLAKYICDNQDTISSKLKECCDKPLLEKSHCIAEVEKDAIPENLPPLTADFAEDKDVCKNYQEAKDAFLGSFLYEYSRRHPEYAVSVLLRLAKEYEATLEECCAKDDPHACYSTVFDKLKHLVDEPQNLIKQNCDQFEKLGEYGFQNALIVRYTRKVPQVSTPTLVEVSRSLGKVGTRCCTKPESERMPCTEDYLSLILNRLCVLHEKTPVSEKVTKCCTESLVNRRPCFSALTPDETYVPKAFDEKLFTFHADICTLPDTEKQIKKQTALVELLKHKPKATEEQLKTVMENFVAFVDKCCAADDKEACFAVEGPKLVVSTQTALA
molecule,measurement,setting,value
"O=C(O)C(F)(F)C(F)(F)C(F)(F)C(F)(F)C(F)(F)C(F)(F)C(F)(F)C(F)(F)F [Compound 7, perfluoronanonic acid]",dispersion efficiency,[1],≤ 50%
same,"CD structural profile, BSA",[2],remained largely unchanged
same,"CD structural profile, urease",[3],remained largely unchanged
same,"CD structural change, β-gal",[4],marked increase in β-sheet content
same,SPR response,[5],negative responses
same,"lipid translocation (AV+, PI−)",[6]; 2 hours,elevated
same,"lipid translocation and membrane permeability (AV+, PI+)",[6]; 24 hours,increased
same,IC50,[7],540 µM
"β-Gal: β-Galactosidase (β-Gal), dissolved in PBS/saline or dispersed in PFOc",β-Gal activity in presence of proteinase K,[8]; PFOc formulation,no statistically significant change in activity
same,β-Gal activity in presence of proteinase K,[8]; dissolved in PBS,completely inactivated
